Like-named read-outs stand apart in the source and are kept apart here.
Key:
[1] = Caco-2 permeability, Method B7; assay type: in vitro ADME, human; conditions: human; for Papp A→B at 60 min, 10 μM / Papp B→A at 60 min, 10 μM: Caco-2, 10 μM, without P-gp inhibitor; for efflux ratio at 60 min, 10 μM: Caco-2, without P-gp inhibitor, read-out: Efflux ratio Papp B2A/Papp A2B
Text: B7. Determination of Caco-2 Permeability
The Caco-2 cell line, derived from a human colorectal carcinoma, has become an established in vitro model for the prediction of drug absorption across the human intestine. (Sun, D.; Yu, L. X.; Hussain, M. A.; Wall, D. A.; Smith, R. L.; Amidon, G. L. Curr. Opin. Drug Discov. Devel. 2004, 7, 75-85; Bergstrom, C. A. Basic Clin. Pharmacol. Toxicol. 2005, 96, 156-61; Balimane, P. V.; Han, Y. H.; Chong, S. AAPS J. 2006, 8, E1-13; Shah, P.; Jogani, V.; Bagchi, T.; Misra, A. Biotechnol. Prog. 2006, 22, 186-198.) When cultured on semi-permeable membranes, Caco-2 cells differentiate into a highly functionalized epithelial barrier with remarkable morphological and biochemical similarity to the small intestinal columnar epithelium. Fully differentiated cell monolayers can be used to assess the membrane transport properties of novel compounds.
Assays to determine the permeability of compounds of the invention utilizing Caco-2 cells are commercially available, for example NoAb BioDiscoveries (Mississaugua, ON, Canada) and Absorption Systems (Exton, Pa., USA).
Permeability across the Caco-2 cell layer was determined by growing the cells on a membrane placed between two (donor and acceptor) chambers. Drug candidates are typically added to the apical (A) side of the cell layer and their appearance in the basolateral (B) side is measured over incubation time. Permeability in this direction represents intestinal absorption. Permeability may also be determined from the basolateral to the apical side of the Caco-2 cell. […]
Permeability (10 μM) for compounds of the invention in the apical to basolateral and basolateral to apical direction were tested in duplicate. Samples will be collected from the donor and acceptor chambers at the beginning (0 min) and following 60 min of incubation at 37° C. and stored frozen at −70° C. until bioanalysis. Samples for each test compound generated from the Caco-2 permeability assay were further analyzed by LC-MS-MS. The permeability of [^3H]-mannitol and [^3H]-propranolol were determined in parallel as controls.
The permeability coefficient (Papp) of each compound and radiolabeled standard was determined using the following equation: […]
where dQ/dT represents the permeability rate, Ci denotes the initial concentration in the donor compartment, and A represents the surface area of the filter. Ci is determined from the mean concentration of duplicate samples taken prior to addition to the donor compartment. Permeability rates were calculated by plotting the cumulative amount of compound measured in the acceptor compartment over time and determining the slope of the line by linear regression analysis. The duplicate and mean apical to basolateral and basolateral to apical Papp's were reported for each compound and standard. […]

[2] = Pharmacokinetic analysis (intravenous and oral), Method B9; assay type: in vivo
Text: B9. Pharmacokinetic Analysis
The pharmacokinetic (PK) behavior of compounds of the invention and their pharmaceutical compositions can be ascertained by methods well known to those skilled in the art and can be used to investigate the pharmacokinetic parameters (elimination half-life, total plasma clearance, etc.) for intravenous, subcutaneous and oral administration of these substances. (Wilkinson, G. R. “Pharmacokinetics: The Dynamics of Drug Absorption, Distribution, and Elimination” in Goodman & Gilman's The Pharmacological Basis of Therapeutics, Tenth Edition, Hardman, J. G.; Limbird, L. E., Eds., McGraw Hill, Columbus, Ohio, 2001, Chapter 1.) See also U.S. Pat. Nos. 7,476,653; 7,491,695; Intl. Pat. Appl. WO 2008/033328 and U.S. Patent Appl. Publ. 2008/0194672. As an example, compound 1505 has the PK profile below.
The determination of PK parameters for additional representative compounds of the invention is presented in the Examples.
A detailed analysis of the pharmacokinetic profile of representative compounds of the invention was conducted using the procedures outlined in Method B9.
A dose level of 2 mg/mL for intravenous administration and 8 mg/mL for oral administration were typically employed.

[3] = target: CYP3A4 (Homo sapiens, UniProt P08684); test: Cytochrome P450 inhibition, Method B6 (two substrates); conditions: read-out: IC50 CYP 3A4
[4] = Table 10b, 2 mg/mL intravenous and 8 mg/mL oral typically employed
[5] = Table 10b, 2 mg/mL intravenous typically employed
[6] = Table 4b, midazolam used as substrate
[7] = Table 4a, nifedipine used as substrate
[8] = plasma, Table 10b, 2 mg/mL intravenous typically employed

Chain of CYP3A4 (P08684 whole entry): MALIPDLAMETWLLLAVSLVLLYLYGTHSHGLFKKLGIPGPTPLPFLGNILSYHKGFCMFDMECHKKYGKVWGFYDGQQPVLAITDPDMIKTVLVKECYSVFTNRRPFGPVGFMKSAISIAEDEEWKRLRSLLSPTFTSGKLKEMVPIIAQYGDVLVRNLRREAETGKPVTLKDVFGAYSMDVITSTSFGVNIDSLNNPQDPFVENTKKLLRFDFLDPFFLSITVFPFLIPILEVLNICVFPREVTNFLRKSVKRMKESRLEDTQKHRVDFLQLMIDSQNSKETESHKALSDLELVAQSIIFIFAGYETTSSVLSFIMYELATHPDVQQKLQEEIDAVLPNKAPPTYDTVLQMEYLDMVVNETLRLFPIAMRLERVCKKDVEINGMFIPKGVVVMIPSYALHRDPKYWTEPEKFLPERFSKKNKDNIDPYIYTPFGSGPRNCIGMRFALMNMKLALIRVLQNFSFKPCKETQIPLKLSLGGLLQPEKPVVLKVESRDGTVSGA

## CC(C)[C@@H]1NCCOc2ccccc2C[C@H](O)[C@@H](C)NC(=O)[C@@H](Cc2cccc(F)c2)NC(=O)[C@H](C(C)O)N(C)C1=O (stereo partly drawn) [Compound 1503]
[1]
  Papp A→B at 60 min, 10 μM: 0.11 ×10⁻⁶ cm/s
  Papp B→A at 60 min, 10 μM: 12 ×10⁻⁶ cm/s
  efflux ratio at 60 min, 10 μM: 109

## CC[C@@H]1CCc2ccc(F)cc2OCCN[C@@H](C(C)C)C(=O)N(C)[C@@H](C(C)O)C(=O)N[C@H](Cc2c[nH]c3ccccc23)C(=O)N1 (stereo partly drawn) [Compound 1505]
[2]; in vivo, po
  Oral F: 18%
[2]; plasma
  half-life: 64 min
[2]; plasma, intravenous
  clearance: 23 mL/min/kg
[1]
  Papp A→B at 60 min, 10 μM: 0.091 ×10⁻⁶ cm/s
  Papp B→A at 60 min, 10 μM: 26.7 ×10⁻⁶ cm/s
  efflux ratio at 60 min, 10 μM: 299

## CC(C)[C@@H]1NCCOc2ccccc2C#C[C@@H](C)NC(=O)[C@@H](Cc2ccccc2)NC(=O)[C@H](C(C)O)N(C)C1=O (stereo partly drawn) [Compound 1688]
[1]
  Papp A→B at 60 min, 10 μM: 0.131 ×10⁻⁶ cm/s
  Papp B→A at 60 min, 10 μM: 41.8 ×10⁻⁶ cm/s
  efflux ratio at 60 min, 10 μM: 318

## CC(C)C1NCCOc2cc(F)ccc2C#CCNC(=O)C(Cc2c[nH]c3ccccc23)NC(=O)C(C(C)O)N(C)C1=O (stereo not drawn) [Compound 1693]
[2]; [4]
  % F: 5 ± 2%
[2]; [5]
  Cl: 35 ± 18 mL/min/kg
  t1/2: 41 ± 4 min
[3]; [6]
  IC50: 2.2 µM

## CCC1CCc2ccc(F)cc2OCCNC(C2(C)CC2)C(=O)N(C)C(C(C)O)C(=O)NC(Cc2c[nH]c3ccccc23)C(=O)N1 (stereo not drawn) [Compound 1703]
[2]; [4]
  % F: 12 ± 6%
[2]; [5]
  Cl: 9 ± 6 mL/min/kg
  t1/2: 147 ± 52 min

## CC[C@@H]1C#Cc2ccc(F)cc2O[C@H](C)CN[C@@H](C2(C)CC2)C(=O)N(C)[C@@H](C(C)O)C(=O)N[C@H](Cc2c[nH]c3ccccc23)C(=O)N1 (stereo partly drawn) [Compound 1707]
[2]; [5]
  Cl: 8 ± 4 mL/min/kg
  t1/2: 130 ± 26 min

## CC(O)[C@H]1C(=O)N[C@H](Cc2c[nH]c3ccccc23)C(=O)N[C@H](C)C#Cc2ccccc2OCCN[C@@H](C2(C)CC2)C(=O)N1C (stereo partly drawn) [Compound 1713]
[2]; [4]
  % F: 14 ± 9%
[2]; [5]
  Cl: 30 ± 1 mL/min/kg
  t1/2: 104 ± 25 min

## CC[C@@H]1C#Cc2ccccc2O[C@H](C)CN[C@@H](C2(C)CC2)C(=O)N(C)[C@@H](C(C)O)C(=O)N[C@H](Cc2c[nH]c3ccccc23)C(=O)N1 (stereo partly drawn) [Compound 1718]
[2]; [4]
  % F: 17 ± 6%
[2]; [5]
  Cl: 5 ± 1 mL/min/kg
  t1/2: 162 ± 4 min

## CC(O)[C@H]1C(=O)N[C@H](Cc2c[nH]c3ccccc23)C(=O)N[C@H](C)CCc2ccc(F)cc2O[C@H](C)CN[C@@H](C2(C)CC2)C(=O)N1C (stereo partly drawn) [Compound 1719]
[2]; [5]
  Cl: 44 ± 3 mL/min/kg
  t1/2: 93 ± 11 min

## CC(O)[C@H]1C(=O)N[C@H](Cc2c[nH]c3ccccc23)C(=O)N[C@H](C)C#Cc2ccc(F)cc2O[C@H](C)CN[C@@H](C2(C)CC2)C(=O)N1C (stereo partly drawn) [Compound 1720]
[2]; [5]
  Cl: 33 ± 12 mL/min/kg
  t1/2: 70 ± 15 min
[3]; [6]
  IC50: 1.6 µM

## CC[C@@H]1C#Cc2c(F)cccc2OCCN[C@@H](C(C)C)C(=O)N(C)[C@@H](C(C)O)C(=O)N[C@H](Cc2c[nH]c3ccccc23)C(=O)N1 (stereo partly drawn) [Compound 1726]
[2]; [4]
  % F: 14 ± 8%
[2]; [5]
  Cl: 9 ± 6 mL/min/kg
  t1/2: 171 ± 16 min

## CC[C@@H]1CCc2ccc(F)cc2OCCN[C@@H](C2(C)CC2)C(=O)N(C)[C@@H](C(C)O)C(=O)N[C@H](Cc2ccccc2)C(=O)N1 (stereo partly drawn) [Compound 1746]
[2]; [4]
  % F: 59 ± 31%
[2]; [5]
  Cl: 12 ± 1 mL/min/kg
  t1/2: 107 ± 4 min

## CC[C@@H]1CCc2ccc(F)cc2OCCN[C@@H](C(C)C)C(=O)N(C)[C@@H](C(C)O)C(=O)N[C@H](Cc2ccc(O)cc2)C(=O)N1 (stereo partly drawn) [Compound 1751]
[2]; [4]
  % F: 34 ± 19%
[2]; [5]
  Cl: 32 ± 5 mL/min/kg
  t1/2: 46 ± 1 min

## CC[C@@H]1C#Cc2ccccc2OCCN[C@@H](C(C)C)C(=O)N(C)[C@@H](C(C)O)C(=O)N[C@H](Cc2c[nH]c3ccccc23)C(=O)N1 (stereo partly drawn) [Compound 1754]
[2]; [4]
  % F: 39 ± 44%
[2]; [5]
  Cl: 8 ± 1 mL/min/kg
  t1/2: 106 ± 13 min

## CC[C@@H]1C#Cc2ccc(F)cc2OCCN[C@@H](C(C)C)C(=O)N(C)[C@@H](C(C)O)C(=O)N[C@H](Cc2c[nH]c3ccccc23)C(=O)N1 (stereo partly drawn) [Compound 1755]
[2]; [4]
  % F: 7 ± 4%
[2]; [5]
  Cl: 12 ± 13 mL/min/kg
  t1/2: 123 ± 28 min

## CC(C)[C@@H]1NCC2CCc3cccc(c3O2)CCCNC(=O)[C@@H](Cc2ccccc2)NC(=O)[C@H](C(C)O)N(C)C1=O (stereo partly drawn) [Compound 1777]
[2]; Intravenous, 2 mg/kg
  AUCinf: 369904 ± 127112 ng·min/mL
  Cl: 6 ± 2 mL/min/kg
  Vz: 882 ± 272 mL/kg
  t1/2: 107 ± 4 min
[2]; Oral, 8 mg/kg
  AUCinf: 190433 ± 114760 ng·min/mL
  Cmax: 1075 ± 772 ng/mL
  F: 13 ± 8%
[2]; Oral, 8 mg/kg, individual values
  Tmax: 15/30/15/15/15/15
[3]; [7]
  IC50: 6 µM

## CC(O)[C@H]1C(=O)N[C@H](Cc2ccccc2)C(=O)NCCCc2cccc3c2OC(CC3)CN[C@@H](C2CC2)C(=O)N1C (stereo partly drawn) [Compound 1778]
[2]; [8]
  clearance: 26 ± 18 mL/min/kg
  half-life: 59 ± 38 min
[1]
  Papp A→B at 60 min, 10 μM: 0.193 ×10⁻⁶ cm/s
  Papp B→A at 60 min, 10 μM: 32.7 ×10⁻⁶ cm/s
  efflux ratio at 60 min, 10 μM: 169

## CC[C@@H]1NCC2CCc3cccc(c3O2)CCCNC(=O)[C@@H](Cc2ccccc2)NC(=O)[C@H](C(C)O)N(C)C1=O (stereo partly drawn) [Compound 1780]
[1]
  Papp A→B at 60 min, 10 μM: 0.099 ×10⁻⁶ cm/s
  Papp B→A at 60 min, 10 μM: 29.5 ×10⁻⁶ cm/s
  efflux ratio at 60 min, 10 μM: 297

## CC(C)[C@@H]1NCCOc2ccccc2C2CCC(C2)NC(=O)[C@@H](Cc2c[nH]c3ccccc23)NC(=O)[C@H](C(C)O)N(C)C1=O (stereo partly drawn) [Compound 1843]
[3]; [7]
  IC50: 6.5 µM

## CC(O)[C@H]1C(=O)N[C@H](Cc2ccccc2)C(=O)NCC#Cc2c(F)cccc2OCCN[C@@H](C2(C)CC2)C(=O)N1C (stereo partly drawn) [Compound 1876]
[2]; plasma, Table 10b, 2 mg/mL intravenous and 8 mg/mL oral typically employed
  bioavailability: 54 ± 19%
[2]; [8]
  clearance: 28 ± 8 mL/min/kg
  half-life: 159 ± 16 min
[1]
  Papp A→B at 60 min, 10 μM: 0.097 ×10⁻⁶ cm/s
  Papp B→A at 60 min, 10 μM: 28 ×10⁻⁶ cm/s
  efflux ratio at 60 min, 10 μM: 288

## CC(O)[C@H]1C(=O)N[C@H](Cc2ccccc2)C(=O)NCC#Cc2ccccc2OCCN[C@@H](C2(C)CC2)C(=O)N1C (stereo partly drawn) [Compound 1878]
[2]; [8]
  clearance: 35 ± 1 mL/min/kg
  half-life: 124 ± 19 min
[1]
  Papp A→B at 60 min, 10 μM: 0.144 ×10⁻⁶ cm/s
  Papp B→A at 60 min, 10 μM: 21.7 ×10⁻⁶ cm/s
  efflux ratio at 60 min, 10 μM: 151

## CC(C)[C@@H]1NCCOc2ccccc2C2CCC(C2)NC(=O)[C@@H](Cc2ccc(F)cc2)NC(=O)[C@H](C(C)O)N(C)C1=O (stereo partly drawn) [Compound 1903]
[1]
  Papp A→B at 60 min, 10 μM: 0.291 ×10⁻⁶ cm/s
  Papp B→A at 60 min, 10 μM: 58.9 ×10⁻⁶ cm/s
  efflux ratio at 60 min, 10 μM: 203

## CC(O)[C@H]1C(=O)N[C@H](Cc2ccccc2)C(=O)NCC#Cc2ccc(F)cc2OCCN[C@@H](C2(C)CC2)C(=O)N1C (stereo partly drawn) [Compound 1918]
[2]; [8]
  clearance: 14 ± 7 mL/min/kg
  half-life: 114 ± 53 min
[1]
  Papp A→B at 60 min, 10 μM: 0.112 ×10⁻⁶ cm/s
  Papp B→A at 60 min, 10 μM: 42.6 ×10⁻⁶ cm/s
  efflux ratio at 60 min, 10 μM: 380

From US20110105389A1 (priority 2009, published 2011)
